Test results published in patent publication US20120029054A1, “RNA Interference Mediated Inhibition of GATA Binding Protein 3 (GATA3) Gene Expression Using Short Intefering Nucleic Acid (siNA)” (Merck Sharp & Dohme Corp., priority 2009, published 2012).

System: GATA3 protein
Assay: GATA3 Western Blot in transfected MCF7 cells (6-well plate)
Type: cell-based, human
Details: 30 nM, 48 hours, average band ratio ± S.D.
Experimental: MCF7 cells were plated in 6-well plates at final counts of 70,000 cells/well in 2 ml of complete growth media. Transfection was performed using 2.5 uL of RNAiMax per well. Final concentration of siNAs was 30 nM (screen) and 30, 0.3, and 0.003 nM (dose response study). Protein lysates were harvested 24, 48, and 72 hours post-transfection (screen) and 72 hours post-transfection (dose response study). Protein lysates were prepared using Cell Disruption Buffer from the PARIS kit (Ambion, cat #1921) according to manufacturer's instructions. Protein concentration was measured using a Bradford Quick Start Kit (Bio-Rad, cat#500-0205).
The protein source for the Western Blot experiments were from transfection of MCF7 cells in a 6 well plate, as described above.
Protein samples were diluted 1:1 in 2× Laemmli buffer with 5% β-mercapto-ethanol and incubated at 95° C. for 5 minutes. 20-40 ug of protein was loaded in each lane of 10% Tris-HCl gel. One lane was designated for MagicMark Protein Standard (Invitrogen # LC5602). The gel was run at 100V for approximately 2 hours. Protein was transferred to a PVDF membrane at 100V for 60 minutes. Once the transfer was finished, the membrane was blocked in 1% Casein in PBS (BioRad Cat#161-0783) for 1 hour on a plate rocker at room temperature followed by the overnight incubation at 4° C. with mouse monoclonal anti-GATA3 primary antibody (Santa Cruz Biotechnology, cat# HG3-31) diluted 1:500 in 1% Casein in PBS. On the next day, the blot was washed 4×5 minutes in PBST (0.1% Tween-20 in PBS) solution and incubated for 30 minutes at room temperature with goat anti-mouse secondary antibody (Pierce Biotechnology, cat#3 31430) diluted 1:20,000 in 1% Casein. […]
The protein bands were quantified by computing their density which is defined by the ratio between the total intensity of all pixels and the area of the rectangle drawn around each band (intensity/mm^2). The density was calculated by the BioRad software.
The level of protein was quantified using the Bio-Rad VersaDoc Imager according to the protocols of that piece of equipment. […]

30263-DC: GATA3 siNA duplex, site 817: sense B cGccucuGcuucAuGGAuc TTB (SEQ 79), antisense GAUccAuGAAGcAGAGGcGUU (SEQ 80) (sense CGCCUCUGCUUCAUGGAUCTT; antisense GAUCCAUGAAGCAGAGGCGUU; chemistry not fully specified)
Density (GATA3)/Density (α-Tubulin): 0.016 ± 0.0003
